Measured values as given in US8569371B2, “Crystal forms of O-desmethylvenlafaxine fumarate” (Pliva Hrvatska D.O.O., priority 2010, dated 2013).

Assay: Differential Scanning Calorimetry (DSC) comparison of crystal forms
Type: physicochemical
Details: comparison of DSC curves (FIG. 6); heating rate 10° C./min, 20-200° C.; melting 34° C. higher than Form I and 16° C. higher than Form II
Description: Differential Scanning Calorimetry (DSC) A. Equipment Instrument: TA Universal Analysis Q1000 Software: Universal Analysis 2000 B. Experimental Parameters Heating rate: 10° C./min Temperature range: 20-200° C. Sample size: 2.00-5.00 mg Purge gas: Nitrogen, 40 ml/min Crucible: Hermetic pinholed

## CN(C)CC(c1ccc(O)cc1)C1(O)CCCCC1.O=C(O)/C=C/C(=O)O (stereo not shown) [O-Desvenlafaxine fumarate Form N, O-desmethylvenlafaxine fumarate]
  thermal stability as compared to forms I and II: enhanced thermal stability
